Laboratory results as given in article doi:10.1101/2025.04.19.649632v1 (biorxiv, 2025).
Read-outs that look alike come from different tables or passages of the source.

Columns and labels:
[1] = molecular target: T1, USP32 FL (USP32FL, USP32WT) (Homo sapiens, UniProt Q8NFA0); assay: UbRhoMP fluorescence intensity assay, […] min preincubation; format: biochemical
[2] = molecular target: T1, USP32 FL (USP32FL, USP32WT); assay: biochemical; conditions: read-out: kinact (s^-1)
[3] = molecular target: T1, USP32 FL (USP32FL, USP32WT); conditions: read-out: Ki; covalent
[4] = molecular target: T1, USP32 FL (USP32FL, USP32WT); format: biochemical; conditions: 500 nM UbRhoMP, pH 7.6, 1 mM TCEP, RT; covalent

T1 sequence (Q8NFA0 whole entry): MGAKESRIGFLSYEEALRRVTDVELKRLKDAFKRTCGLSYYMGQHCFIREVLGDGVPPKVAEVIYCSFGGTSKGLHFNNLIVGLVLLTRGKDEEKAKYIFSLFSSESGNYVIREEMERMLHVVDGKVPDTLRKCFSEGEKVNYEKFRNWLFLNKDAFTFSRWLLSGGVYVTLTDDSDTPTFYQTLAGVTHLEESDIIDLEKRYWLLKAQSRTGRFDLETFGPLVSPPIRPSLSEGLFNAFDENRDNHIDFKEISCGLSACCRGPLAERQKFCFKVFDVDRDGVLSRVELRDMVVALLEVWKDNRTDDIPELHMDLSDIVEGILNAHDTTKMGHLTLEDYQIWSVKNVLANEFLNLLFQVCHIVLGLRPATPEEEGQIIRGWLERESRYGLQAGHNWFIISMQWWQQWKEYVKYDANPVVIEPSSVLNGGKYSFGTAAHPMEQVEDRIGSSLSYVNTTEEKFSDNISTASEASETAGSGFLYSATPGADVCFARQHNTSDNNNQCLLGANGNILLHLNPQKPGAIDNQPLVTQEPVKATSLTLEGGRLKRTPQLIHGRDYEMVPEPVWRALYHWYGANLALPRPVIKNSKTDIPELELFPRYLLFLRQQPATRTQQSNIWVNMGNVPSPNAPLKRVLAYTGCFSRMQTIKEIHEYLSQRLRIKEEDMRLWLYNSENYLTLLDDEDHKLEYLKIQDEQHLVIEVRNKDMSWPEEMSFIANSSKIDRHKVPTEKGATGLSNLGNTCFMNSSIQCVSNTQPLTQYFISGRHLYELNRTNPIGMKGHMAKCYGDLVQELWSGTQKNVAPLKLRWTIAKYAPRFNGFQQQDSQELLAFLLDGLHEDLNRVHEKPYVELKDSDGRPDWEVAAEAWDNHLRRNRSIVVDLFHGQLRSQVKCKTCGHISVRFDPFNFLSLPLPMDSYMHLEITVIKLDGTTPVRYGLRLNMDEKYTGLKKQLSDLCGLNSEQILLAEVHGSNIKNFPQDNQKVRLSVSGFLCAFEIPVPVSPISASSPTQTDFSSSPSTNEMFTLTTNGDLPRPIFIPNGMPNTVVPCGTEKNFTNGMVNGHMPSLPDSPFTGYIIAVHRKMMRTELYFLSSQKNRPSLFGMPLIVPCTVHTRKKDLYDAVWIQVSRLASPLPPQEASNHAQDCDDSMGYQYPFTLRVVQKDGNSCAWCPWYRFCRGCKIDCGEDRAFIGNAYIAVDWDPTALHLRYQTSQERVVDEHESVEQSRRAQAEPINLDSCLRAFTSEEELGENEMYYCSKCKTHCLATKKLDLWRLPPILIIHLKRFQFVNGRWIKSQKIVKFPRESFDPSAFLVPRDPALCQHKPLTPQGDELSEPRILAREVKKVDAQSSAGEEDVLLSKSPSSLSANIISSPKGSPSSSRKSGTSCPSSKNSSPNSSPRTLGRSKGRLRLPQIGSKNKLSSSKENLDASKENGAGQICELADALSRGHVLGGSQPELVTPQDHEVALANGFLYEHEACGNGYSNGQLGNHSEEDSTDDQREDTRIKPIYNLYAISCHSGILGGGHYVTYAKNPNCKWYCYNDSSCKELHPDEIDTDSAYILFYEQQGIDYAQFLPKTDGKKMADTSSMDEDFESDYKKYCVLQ

Structure (SMILES)	IC50 ([1]; 500 nM UbRhoMP, pH 7.6, 1 mM TCEP, RT, covalent) [nM]	kinact [2] [s⁻¹]	KI (inactivation) [3] [nM]	kinact/Ki [4]	IC50 [1] [nM]
CCN1/C(=C/C=C/C=C/C2=[N+](CCCCCC(=O)NCCCc3cn(CCOc4ccc(S(=O)(=O)N5CCC(C(=O)N[C@@H]6CCN(C#N)C6)CC5)cc4)nn3)c3ccc(S(=O)(=O)[O-])cc3C2(C)C)C(C)(C)c2cc(S(=O)(=O)O)ccc21 [Huib32*1]	412				
Cc1noc(C)c1S(=O)(=O)N1CCC(C(=O)N[C@@H]2CCN(C#N)C2)CC1 [BB01CA282, Huib32]		0.000222	11.8	18,800 s^-1M^-1	
N#CN1CC[C@@H](NC(=O)C2CCN(S(=O)(=O)c3ccc(OCCN=[N+]=[N-])cc3)CC2)C1 [Huib32*]					670
Cc1noc(C)c1S(=O)(=O)N1CCC(C(=O)N2CC3CC2CN3C#N)CC1 (centres unmarked) [BB12CA282]		0.000324	152	2,130 s^-1M^-1	94
N#CN1CC[C@@H](NC(=O)C2CCN(S(=O)(=O)c3ccc(OCCn4cc(CNC(=O)CCCC[C@@H]5SC[C@@H]6NC(=O)N[C@@H]65)nn4)cc3)CC2)C1 [Huib32*2]					266
Cc1noc(C)c1S(=O)(=O)N1CCC(C(=O)N2CCC3(CCN(C#N)C3)C2)CC1 (centres unmarked) [BB14CA282]		0.000984	4490	219 s^-1M^-1	518
